Measured values reported in BindingDB's records for doi:10.1016/s0960-894x(99)00336-4 (Merck Research Laboratories, 1999).
pIC50: −log10 of the molar value.

Assay: Inhibitory activity against Calcineurin (CaN phosphatase)

pIC50 | Structure (SMILES)
8.31 | CC[C@@H]1/C=C(\C)C[C@H](C)C[C@H](OC)[C@H]2O[C@@](O)(C(=O)C(=O)N3CCCC[C@H]3C(=O)O[C@H](/C(C)=C/C3CC[C@@H](OC[C@@H](O)c4cccc(C(F)(F)F)c4)[C@H](OC)C3)[C@H](C)[C@H](O)CC1=O)[C@H](C)C[C@@H]2OC (stereo partly specified) [17-Ethyl-1,14-dihydroxy-12-(2-{4-[2-hydroxy-2-(3-trifluoromethyl-phenyl)-ethoxy]-3-methoxy-cyclohexyl}-1-methyl-vinyl)-23,25-dimethoxy-13,19,21,27-tetramethyl-11,28-dioxa-4-aza-tricyclo[22.3.1.0*4,9*]octacos-18-ene-2,3,10,16-tetraone]
8.40 | CC[C@@H]1/C=C(\C)C[C@H](C)C[C@H](OC)[C@H]2O[C@@](O)(C(=O)C(=O)N3CCCC[C@H]3C(=O)O[C@H](/C(C)=C/C3CC[C@@H](OC[C@@H](O)c4cc5ccccc5s4)[C@H](OC)C3)[C@H](C)[C@H](O)CC1=O)[C@H](C)C[C@@H]2OC (stereo partly specified) [12-{2-[4-(2-Benzo[b]thiophen-2-yl-2-hydroxy-ethoxy)-3-methoxy-cyclohexyl]-1-methyl-vinyl}-17-ethyl-1,14-dihydroxy-23,25-dimethoxy-13,19,21,27-tetramethyl-11,28-dioxa-4-aza-tricyclo[22.3.1.0*4,9*]octacos-18-ene-2,3,10,16-tetraone]
8.38 | CC[C@@H]1/C=C(\C)C[C@H](C)C[C@H](OC)[C@H]2O[C@@](O)(C(=O)C(=O)N3CCCC[C@H]3C(=O)O[C@H](/C(C)=C/C3CC[C@@H](OC[C@H](O)c4cc5ccccc5s4)[C@H](OC)C3)[C@H](C)[C@H](O)CC1=O)[C@H](C)C[C@@H]2OC (stereo partly specified) [12-{2-[4-(2-Benzo[b]thiophen-2-yl-2-hydroxy-ethoxy)-3-methoxy-cyclohexyl]-1-methyl-vinyl}-17-ethyl-1,14-dihydroxy-23,25-dimethoxy-13,19,21,27-tetramethyl-11,28-dioxa-4-aza-tricyclo[22.3.1.0*4,9*]octacos-18-ene-2,3,10,16-tetraone]
8.14 | CC[C@@H]1/C=C(\C)C[C@H](C)C[C@H](OC)[C@H]2O[C@@](O)(C(=O)C(=O)N3CCCC[C@H]3C(=O)O[C@H](/C(C)=C/C3CC[C@@H](OC[C@H](O)c4ccc5ccccc5c4)[C@H](OC)C3)[C@H](C)[C@H](O)CC1=O)[C@H](C)C[C@@H]2OC (stereo partly specified) [17-Ethyl-1,14-dihydroxy-12-{2-[4-(2-hydroxy-2-naphthalen-2-yl-ethoxy)-3-methoxy-cyclohexyl]-1-methyl-vinyl}-23,25-dimethoxy-13,19,21,27-tetramethyl-11,28-dioxa-4-aza-tricyclo[22.3.1.0*4,9*]octacos-18-ene-2,3,10,16-tetraone]
8.10 | CC[C@@H]1/C=C(\C)C[C@H](C)C[C@H](OC)[C@H]2O[C@@](O)(C(=O)C(=O)N3CCCC[C@H]3C(=O)O[C@H](/C(C)=C/C3CC[C@@H](OC[C@@H](O)c4cc(C)cc(C)c4)[C@H](OC)C3)[C@H](C)[C@H](O)CC1=O)[C@H](C)C[C@@H]2OC (stereo partly specified) [12-(2-{4-[2-(3,5-Dimethyl-phenyl)-2-hydroxy-ethoxy]-3-methoxy-cyclohexyl}-1-methyl-vinyl)-17-ethyl-1,14-dihydroxy-23,25-dimethoxy-13,19,21,27-tetramethyl-11,28-dioxa-4-aza-tricyclo[22.3.1.0*4,9*]octacos-18-ene-2,3,10,16-tetraone]
8.55 | CC[C@@H]1/C=C(\C)C[C@H](C)C[C@H](OC)[C@H]2O[C@@](O)(C(=O)C(=O)N3CCCC[C@H]3C(=O)O[C@H](/C(C)=C/C3CC[C@@H](OC[C@@H](O)c4ccc5ccccc5c4)[C@H](OC)C3)[C@H](C)[C@H](O)CC1=O)[C@H](C)C[C@@H]2OC (stereo partly specified) [17-Ethyl-1,14-dihydroxy-12-{2-[4-(2-hydroxy-2-naphthalen-2-yl-ethoxy)-3-methoxy-cyclohexyl]-1-methyl-vinyl}-23,25-dimethoxy-13,19,21,27-tetramethyl-11,28-dioxa-4-aza-tricyclo[22.3.1.0*4,9*]octacos-18-ene-2,3,10,16-tetraone]
8.06 | CC[C@@H]1/C=C(\C)C[C@H](C)C[C@H](OC)[C@H]2O[C@@](O)(C(=O)C(=O)N3CCCC[C@H]3C(=O)O[C@H](/C(C)=C/C3CC[C@@H](OC[C@H](O)c4cc(C)cc(C)c4)[C@H](OC)C3)[C@H](C)[C@H](O)CC1=O)[C@H](C)C[C@@H]2OC (stereo partly specified) [12-(2-{4-[2-(3,5-Dimethyl-phenyl)-2-hydroxy-ethoxy]-3-methoxy-cyclohexyl}-1-methyl-vinyl)-17-ethyl-1,14-dihydroxy-23,25-dimethoxy-13,19,21,27-tetramethyl-11,28-dioxa-4-aza-tricyclo[22.3.1.0*4,9*]octacos-18-ene-2,3,10,16-tetraone]
7.82 | C=CC[C@@H]1/C=C(\C)C[C@H](C)C[C@H](OC)[C@H]2O[C@@](O)(C(=O)C(=O)N3CCCC[C@H]3C(=O)O[C@H](/C(C)=C/[C@@H]3CC[C@@H](O)[C@H](OC)C3)[C@H](C)[C@@H](O)CC1=O)[C@H](C)C[C@@H]2OC [(E)-(1R,9S,12S,13R,14R,21S,23S,24R,25S,27R)-17-Allyl-1,14-dihydroxy-12-[(E)-2-((3R,4R)-4-hydroxy-3-methoxy-cyclohexyl)-1-methyl-vinyl]-23,25-dimethoxy-13,19,21,27-tetramethyl-11,28-dioxa-4-aza-tricyclo[22.3.1.0*4,9*]octacos-18-ene-2,3,10,16-tetraone]
8.23 | CC[C@@H]1/C=C(\C)C[C@H](C)C[C@H](OC)[C@H]2O[C@@](O)(C(=O)C(=O)N3CCCC[C@H]3C(=O)O[C@H](/C(C)=C/C3CC[C@@H](OC[C@H](O)c4cccc(C(F)(F)F)c4)[C@H](OC)C3)[C@H](C)[C@H](O)CC1=O)[C@H](C)C[C@@H]2OC (stereo partly specified) [17-Ethyl-1,14-dihydroxy-12-(2-{4-[2-hydroxy-2-(3-trifluoromethyl-phenyl)-ethoxy]-3-methoxy-cyclohexyl}-1-methyl-vinyl)-23,25-dimethoxy-13,19,21,27-tetramethyl-11,28-dioxa-4-aza-tricyclo[22.3.1.0*4,9*]octacos-18-ene-2,3,10,16-tetraone]
8.06 | CC[C@@H]1/C=C(\C)C[C@H](C)C[C@H](OC)[C@H]2O[C@@](O)(C(=O)C(=O)N3CCCC[C@H]3C(=O)O[C@H](/C(C)=C/C3CC[C@@H](OC[C@H](O)c4ccc(F)c(F)c4)[C@H](OC)C3)[C@H](C)[C@H](O)CC1=O)[C@H](C)C[C@@H]2OC (stereo partly specified) [12-(2-{4-[2-(3,4-Difluoro-phenyl)-2-hydroxy-ethoxy]-3-methoxy-cyclohexyl}-1-methyl-vinyl)-17-ethyl-1,14-dihydroxy-23,25-dimethoxy-13,19,21,27-tetramethyl-11,28-dioxa-4-aza-tricyclo[22.3.1.0*4,9*]octacos-18-ene-2,3,10,16-tetraone]
8.14 | CC[C@@H]1/C=C(\C)C[C@H](C)C[C@H](OC)[C@H]2O[C@@](O)(C(=O)C(=O)N3CCCC[C@H]3C(=O)O[C@H](/C(C)=C/C3CC[C@@H](OC[C@@H](O)c4ccc(F)c(F)c4)[C@H](OC)C3)[C@H](C)[C@H](O)CC1=O)[C@H](C)C[C@@H]2OC (stereo partly specified) [12-(2-{4-[2-(3,4-Difluoro-phenyl)-2-hydroxy-ethoxy]-3-methoxy-cyclohexyl}-1-methyl-vinyl)-17-ethyl-1,14-dihydroxy-23,25-dimethoxy-13,19,21,27-tetramethyl-11,28-dioxa-4-aza-tricyclo[22.3.1.0*4,9*]octacos-18-ene-2,3,10,16-tetraone]
